Measured values reported in patent US20260160663A1, “OBLIQUE LINE SCANNER SYSTEMS AND METHODS FOR HIGH THROUGHPUT SINGLE MOLECULE TRACKING IN LIVING CELLS” (EIKON THERAPEUTICS, INC., priority 2022, published 2026).

System: Halo-PCNA U2OS cells
Assay: Cell cycle block, phases assigned by PCNA-based machine learning model
Details: 2 mM Thymidine (S-phase block) or RO-3306 (G2-M block) per FIG. 20B legend
Procedure: Time-lapse microscopy was conducted on Halo-PCNA labeled with 50 nM JFX650, to achieve near-saturating labeling, for 12 hours at 12 frames per hour (FIG. 21A). A machine learning model was then trained using both manually assigned cell stages and time-based progression resulting in both a G1, early S, mid S, late S, G2 and mitosis classifier as well as a regression prediction across the continuum of the cell cycle (FIG. 21B). The predicted cell cycle classification performed well as compared to manual annotation (FIG. 21C). Clear progression of individual cells through the cell cycle was observed when regression prediction was plotted across the time series (FIG. 21D). […] When cells in each cell phase were analyzed separately, it became apparent that the slow-moving population of PCNA was exclusively found in cell predicted to be in S-phase and that there was a marked decrease in the fast-moving population (FIG. 20E). Mean diffusion coefficient of PCNA was then measured for 4,081 individual cells to characterize heterogeneity across the cell population, which is described in large part by cell cycle (FIG. 20F).
Cell cycle as provided above can be automatically determined using an image (e.g., an image of JF549-labeled PCNA). […]

SMILES	fraction of cells assigned to the respective cell phase
O=C1NC(=NCc2cccs2)S/C1=C\c1ccc2ncccc2c1 [RO-3306]	expected enrichment
Cc1cn([C@H]2C[C@H](O)[C@@H](CO)O2)c(=O)[nH]c1=O [thymidine]	expected enrichment
